Like-named read-outs stand apart in the source and are kept apart here.
Tests used:
[1] = system: middle cerebral artery occlusion (MCAO); assay: Pre-stroke intranasal DFO, 2-hour middle cerebral artery occlusion (MCAO), infarct volume by TTC staining; assay type: in vivo, rats; details: for total infarct volume: rats
[2] = cited from earlier work
[3] = system: middle cerebral artery occlusion (MCAO); assay: Intranasal DFO pretreatment, infarct volume and brain swelling 24 hours after MCAO; assay type: in vivo, rats; details: 3 doses of 60 μl 10% intranasal DFO 48 hours before MCAO
Protocol: Further, another experiment was conducted to further discover the mechanisms that may be manipulated in order to achieve the desired therapeutic results. Thus, rats were treated with 3 doses of 60 μl 10% intranasal deferoxamine (DFO), or water, at 3 hours intervals. The two groups of rats were either sacrificed or subjected to a 2-hour Middle Cerebral Artery Occlusion (MCAO) 48 hours later. Those rats undergoing the MCAO were sacrificed 24 hours after the MCAO.
In addition to the bioarray and PCR results, total infarct volume, cortical infarct volume and brain swelling were assessed for the rats pretreated with intranasal DFO with stroke and untreated rats with stroke 24 hours after MCAO.

[4] = Intranasal delivery of DFO (59Fe-labeled ferrioxamine), tissue concentrations by scintillation counting; assay type: in vivo, rats; details: rat, 6 mg, intranasal ~6 mg, 25 min. after onset of delivery
Text: Following delivery, tissues were removed for analysis.

[5] = system: middle cerebral artery occlusion (MCAO); assay: Post-stroke intranasal DFO at start of reperfusion after MCAO, infarct volume; assay type: in vivo, rats
Protocol: In this regard, let us now turn to FIG. 4. Here, the experimental method is as follows: The method is the same as described above in connection with FIG. 1, except that the subjects are not pretreated. […] Six doses of 10% DFO (6 mg DFO/dose) were administered in this manner; three doses of 10% DFO at 2-hour intervals on the day of surgery and the remaining three doses of 10% DFO at three-hour intervals on the day following surgery (40).

[6] = system: hypoxia-inducible factor-1α (HIF-1α); assay: Western blot of brain proteins for HIF-1α after intranasal DFO; assay type: in vivo; details: rats, Western blot quantitation
Text: Intranasal DFO reduced infarct volumes by 60% when expressed as either total infarct, cortical infarct, or striatal infarct volume. Brain proteins from olfactory bulb and from striatum were subjected to Western blot analysis for hypoxia-inducible factor-1α (HIF-1α). See FIG. 1 for a bar graph illustrating the results (10) for control animals (C) and pretreated animals (P). The results are shown broken into the cortex (12), striatum (14) and overall total (16) infarct volumes for control/pretreated animals. […] Here, the control animals' (C) total infarct volume is 175.93 mm^3 (18), while the pretreated animals' (P) total infarct volume is 70.57 mm^3 (20). Thus, a reduction of 60% in infarct volume is realized by way of this pretreatment regimen.
Additional brain samples from animals treated with intranasal DFO were generated, total RNA was isolated from olfactory bulb and striatum, and cDNA was generated using primers specific for HIF-1α.

[7] = humans, intravenous; cited from earlier work
[8] = one dose of 10% DFO intranasal pre-stroke, 5 days after MCAO
[9] = three doses of 3% DFO intranasal pre-stroke
[10] = three doses of 10% DFO intranasal pre-stroke, 5 days after MCAO

CC(=O)N(O)CCCCCNC(=O)CCC(=O)N(O)CCCCCNC(=O)CCC(=O)N(O)CCCCCN [DFO, deferoxamine]
overall infarct volume reduction [1, 8]: 26%
total infarct volume [1, 8]: 86.72 mm^3
total infarct volume [1, 9]: 101.83 mm^3
total infarct volume ([1]; three doses of 10% DFO (6 mg each) intranasal 48 hours before 2-hour MCAO, 5 days after MCAO): 70.57 mm^3
reduction of total infarct volume [1, 9]: 35%
reduction of cortical infarct volume [1, 10]: 60%
reduction of striatal infarct volume [1, 10]: 60%
reduction of total infarct volume ([1]; three doses of 10% DFO intranasal pre-stroke, 5 days after MCAO, vs distilled water controls): 60%
effect of intravenous bolus injection [2]: causes acute hypotension
decrease in brain swelling [3]: 71%
decrease in cortical infarct volume [3]: 72%
decrease in total infarct volume ([3]; rats): 56%
concentration at 25 min ([4]; olfactory epithelium, read-out: DFO concentration, Olfactory Epithelium): 12000 µM
concentration at 25 min ([4]; septal nucleus, read-out: DFO concentration, Septal Nucleus): 2.6 µM
concentration at 25 min ([4]; thalamus, read-out: DFO concentration, Thalamus): 1.1 µM
total infarct volume ([5]; rats, six doses of 10% DFO (6 mg/dose) intranasal post-stroke from start of reperfusion): 116 mm^3
reduction of total infarct volume ([5]; six doses of 10% DFO intranasal post-stroke): 55%
elevation of HIF-1α protein in olfactory bulb [6]: approximately 30 fold
elevation of HIF-1α protein in striatum [6]: ~20 fold
plasma half-life [7]: less than 10 minutes

From US7776312B2, “Method of treating Alzheimer's disease comprising administering deferoxamine (DFO) to the upper one-third of the nasal cavity” (HealthPartners Research Foundation, priority 2004, dated 2010)
